{"source": "patent US20220033397A1", "about": "“PHARMACEUTICAL COMPOUNDS AND THEIR USE AS INHIBITORS OF UBIQUITIN SPECIFIC PROTEASE 19 (USP19)” (ALMAC DISCOVERY LIMITED, priority 2018, published 2022)"}
{"biological_target": "T1, Full-length USP19 (Homo sapiens, UniProt O94966)", "T1 construct": "Full-length USP19 was purchased from Boston Biochem (E-576); purchased Boston Biochem E-576", "T1 sequence (O94966 1-1318)": "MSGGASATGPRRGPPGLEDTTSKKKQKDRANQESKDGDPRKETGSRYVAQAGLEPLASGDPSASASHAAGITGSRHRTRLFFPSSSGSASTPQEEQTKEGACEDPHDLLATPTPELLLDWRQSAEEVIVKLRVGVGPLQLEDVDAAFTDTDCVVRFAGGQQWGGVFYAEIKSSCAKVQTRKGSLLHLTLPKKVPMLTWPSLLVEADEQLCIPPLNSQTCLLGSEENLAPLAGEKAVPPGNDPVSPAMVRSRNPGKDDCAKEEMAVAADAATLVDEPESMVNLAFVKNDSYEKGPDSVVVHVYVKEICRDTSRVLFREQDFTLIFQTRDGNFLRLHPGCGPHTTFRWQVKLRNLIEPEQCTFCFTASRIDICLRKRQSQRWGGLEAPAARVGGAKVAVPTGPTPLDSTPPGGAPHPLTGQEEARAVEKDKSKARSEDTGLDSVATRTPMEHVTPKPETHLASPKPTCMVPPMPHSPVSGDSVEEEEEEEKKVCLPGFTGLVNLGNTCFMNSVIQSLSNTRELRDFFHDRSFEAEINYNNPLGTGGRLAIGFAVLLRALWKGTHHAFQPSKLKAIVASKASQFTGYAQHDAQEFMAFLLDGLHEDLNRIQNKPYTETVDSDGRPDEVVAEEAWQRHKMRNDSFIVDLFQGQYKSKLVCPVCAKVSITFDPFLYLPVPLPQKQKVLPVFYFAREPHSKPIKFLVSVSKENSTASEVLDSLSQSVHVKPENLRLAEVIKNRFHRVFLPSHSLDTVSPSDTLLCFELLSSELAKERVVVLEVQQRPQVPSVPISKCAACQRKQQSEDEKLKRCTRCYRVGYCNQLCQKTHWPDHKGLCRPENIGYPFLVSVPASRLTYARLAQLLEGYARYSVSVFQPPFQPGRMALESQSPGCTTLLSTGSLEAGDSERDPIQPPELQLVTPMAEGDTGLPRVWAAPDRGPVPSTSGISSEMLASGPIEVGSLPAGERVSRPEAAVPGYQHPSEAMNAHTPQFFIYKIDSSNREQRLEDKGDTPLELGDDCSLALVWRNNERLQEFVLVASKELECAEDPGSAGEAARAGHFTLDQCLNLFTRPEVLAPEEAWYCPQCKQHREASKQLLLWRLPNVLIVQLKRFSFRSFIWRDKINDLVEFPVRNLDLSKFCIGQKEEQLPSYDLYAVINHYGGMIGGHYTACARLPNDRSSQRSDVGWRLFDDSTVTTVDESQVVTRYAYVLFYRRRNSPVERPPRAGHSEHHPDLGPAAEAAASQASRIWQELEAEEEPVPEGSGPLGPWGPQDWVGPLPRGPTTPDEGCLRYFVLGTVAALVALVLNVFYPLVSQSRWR", "assay": "USP19 fluorescence polarisation (FP) homogeneous assay with Ubiquitin-Lys-TAMRA substrate", "assay_type": "biochemical", "conditions": "2.5 nM USP19, 30 min pre-incubation, average of at least two duplicate experiments", "summary_of_the_method": "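Full-length USP19 preincubated 30 min at RT with inhibitor (200 μM to 2 μM series, 8–18 points) before adding 500 nM Ubiquitin-Lys-TAMRA substrate.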", "units": {"IC50": "µM"}}
{"smiles": "C[C@H](CC1CCCCC1)C(=O)N1CCC(O)(Cn2cnc3ccsc3c2=O)C2(CCCC2)C1", "note": "(stereo partly drawn) [Example 144, 3-((7-((R)-3-Cyclohexyl-2-methylpropanoyl)-10-hydroxy-7-azaspiro[4.5]decan-10-yl)methyl)thieno[3,2-d]pyrimidin-4(3H)-one]", "IC50": "0.5 to 5"}
{"smiles": "Cc1nc2ccccc2c(=O)n1CC1(O)CCN(C(=O)[C@H](C)CC2CCCCC2)CC12CCCC2", "note": "(stereo partly drawn) [Example 120, 3-((7-((R)-3-Cyclohexyl-2-methylpropanoyl)-10-hydroxy-7-azaspiro[4.5]decan-10-yl)methyl)-2-methylquinazolin-4(3H)-one]", "IC50": "0.5 to 5"}
{"smiles": "C[C@H](CC1CCCCC1)C(=O)N1CCC(O)(Cn2cc(C3CC3)ncc2=O)C(C)(C)C1", "note": "(stereo partly drawn) [Example 22, 1-((1-((R)-3-Cyclohexyl-2-methylpropanoyl)-4-hydroxy-3,3-dimethylpiperidin-4-yl)methyl)-5-cyclopropylpyrazin-2(1H)-one]", "IC50": "0.5 to 5"}
{"smiles": "CN(Cc1ccns1)C(=O)N1CCC(O)(Cn2cnc(-c3ccccc3)cc2=O)C2(CCCC2)C1", "note": "(stereo not shown) [Example 238, 10-Hydroxy-N-(isothiazol-5-ylmethyl)-N-methyl-10-((6-oxo-4-phenylpyrimidin-1(6H)-yl)methyl)-7-azaspiro[4.5]decane-7-carboxamide]", "IC50": "5 to 50"}
{"smiles": "C[C@H](CC(F)(F)F)C(=O)N1CCC(O)(CN2CCN(C3CCC(C)(C)CC3)CC2=O)C2(CCCC2)C1", "note": "(stereo partly drawn) [Example 116, 4-(4,4-Dimethylcyclohexyl)-1-((10-hydroxy-7-((R)-4,4,4-trifluoro-2-methylbutanoyl)-7-azaspiro[4.5]decan-10-yl)methyl)Piperazin-2-one]", "IC50": "5 to 50"}
{"smiles": "C[C@@H]1CNCCN1C(=O)N1CCC(O)(Cn2cnc(-c3ccccc3)cc2=O)C2(CCCC2)C1", "note": "(stereo partly drawn) [Example 207, 3-((10-Hydroxy-7-((R)-2-methylpiperazine-1-carbonyl)-7-azaspiro[4.5]decan-10-yl)methyl)-6-phenylpyrimidin-4(3H)-one]", "IC50": "50 to 250"}
{"smiles": "O=C(N1CC(C(F)(F)F)C1)N1CC[C@@](O)(Cn2cnc(-c3ccccc3)cc2=O)C2(CCCC2)C1", "note": "[Example 221, (S)-3-((10-Hydroxy-7-(3-(trifluoromethyl)azetidine-1-carbonyl)-7-azaspiro[4.5]decan-10-yl)methyl)-6-phenylpyrimidin-4(3H)-one]", "IC50": "0.5 to 5"}
{"smiles": "C[C@H](CC1CCCCC1)C(=O)N1CCC(O)(CN2CCN(S(C)(=O)=O)CC2=O)C2(CCCC2)C1", "note": "(stereo partly drawn) [Example 49, 1-((7-((R)-3-Cyclohexyl-2-methylpropanoyl)-10-hydroxy-7-azaspiro[4.5]decan-10-yl)methyl)-4-(methylsulfonyl)piperazin-2-one]", "IC50": "0.5 to 5"}
{"smiles": "C[C@H](CC(F)(F)F)C(=O)N1CCC(O)(Cn2ccc3ncncc3c2=O)C2(CCCC2)C1", "note": "(stereo partly drawn) [Example 159, 6-((10-Hydroxy-7-((R)-4,4,4-trifluoro-2-methylbutanoyl)-7-azaspiro[4.5]decan-10-yl)methyl)pyrido[4,3-d]pyrimidin-5(6H)-one]", "IC50": "5 to 50"}
{"smiles": "CC(NC(=O)N1CCC(O)(Cn2cnc(-c3ccccc3)cc2=O)C2(CCCC2)C1)c1ccoc1", "note": "(stereo not shown) [Example 255, N-(1-(Furan-3-yl)ethyl)-10-hydroxy-10-((6-oxo-4-phenylpyrimidin-1(6H)-yl)methyl)-7-azaspiro[4.5]decane-7-carboxamide]", "IC50": "0.5 to 5"}
{"smiles": "O=C(N1CC[C@@](O)(Cn2cnc(-c3ccccc3C(F)F)cc2=O)C2(CCCC2)C1)N1CCNC[C@H]1c1ccccc1", "note": "[Example 366, 6-(2-(Difluoro-methyl)phenyl)-3-(((S)-10-hydroxy-7-((R)-2-phenylpiperazine-1-carbonyl)-7-aza-spiro[4.5]decan-10-yl)methyl)pyrimidin-4(3H)-one]", "IC50": "< 0.5"}
{"smiles": "COc1ccccc1C1CNCCN1C(=O)N1CCC(O)(Cn2cnc(-c3ccccc3)cc2=O)C2(CCCC2)C1", "note": "(stereo not shown) [Example 271, 3-((10-Hydroxy-7-(2-(2-methoxyphenyl)piperazine-1-carbonyl)-7-azaspiro[4.5]decan-10-yl)methyl)-6-phenylpyrimidin-4(3H)-one]", "IC50": "50 to 250"}
{"smiles": "C[C@H](CC(F)(F)F)C(=O)N1CCC(O)(Cn2ccc3nc(N(C)C)ncc3c2=O)C2(CCCC2)C1", "note": "(stereo partly drawn) [Example 58, 2-(Dimethylamino)-6-((10-hydroxy-7-((R)-4,4,4-trifluoro-2-methylbutanoyl)-7-azaspiro[4.5]decan-10-yl)methyl)pyrido[4,3-d]pyrimidin-5(6H)-one]", "IC50": "0.5 to 5"}
{"smiles": "C[C@H](CC1CCCCC1)C(=O)N1CCC(O)(Cn2cc(-c3ccncc3)ncc2=O)C(C)(C)C1", "note": "(stereo partly drawn) [Example 14, 1-((1-((R)-3-Cyclohexyl-2-methylpropanoyl)-4-hydroxy-3,3-dimethylpiperidin-4-yl)methyl)-5-(pyridin-4-yl)pyrazin-2(1H)-one]", "IC50": "0.5 to 5"}
{"smiles": "O=C(N1CC[C@@](O)(Cn2cnc(C3CC3)cc2=O)C2(CCCC2)C1)N1CCNC[C@H]1c1cccc(F)c1", "note": "[Example 377, 6-Cyclopropyl-3-(((S)-7-((R)-2-(3-fluoro-phenyl)piperazine-1-carbonyl)-10-hydroxy-7-aza-spiro[4.5]decan-10-yl)methyl)pyrimidin-4(3H)-one]", "IC50": "< 0.5"}
{"smiles": "Cc1cn(CC2(O)CCN(C(=O)N3CCNC[C@H]3c3ccccc3)CC23CCCC3)c(=O)cn1", "note": "(stereo partly drawn) [Example 92, 1-((10-Hydroxy-7-((R)-2-phenylpiperazine-1-carbonyl)-7-azaspiro[4.5]decan-10-yl)methyl)-5-methylpyrazin-2(1H)-one]", "IC50": "< 0.5"}
{"smiles": "C[C@H](CC(F)(F)F)C(=O)N1CCC(O)(Cn2cnc3ccc(F)cc3c2=O)C2(CCCC2)C1", "note": "(stereo partly drawn) [Example 148, 6-Fluoro-3-((10-hydroxy-7-((R)-4,4,4-trifluoro-2-methylbutanoyl)-7-azaspiro[4.5]decan-10-yl)methyl)quinazolin-4(3H)-one]", "IC50": "5 to 50"}
{"smiles": "COc1ccc2ccn(CC3(O)CCN(C(=O)[C@H](C)CC4CCCCC4)CC34CCCC4)c(=O)c2c1", "note": "(stereo partly drawn) [Example 127, 2-((7-((R)-3-Cyclohexyl-2-methylpropanoyl)-10-hydroxy-7-azaspiro[4.5]decan-10-yl)methyl)-7-methoxyisoquinolin-1(2H)-one]", "IC50": "0.5 to 5"}
{"smiles": "O=C1COCCN1CC1(O)CCN(C(=O)N2CCNC[C@H]2c2ccccc2)CC12CCCC2", "note": "(stereo partly drawn) [Example 118, 4-((10-Hydroxy-7-((R)-2-phenylpiperazine-1-carbonyl)-7-azaspiro[4.5]decan-10-yl)methyl)morpholin-3-one]", "IC50": "0.5 to 5"}
